Laboratory results reported in PubChem BioAssay (NCI).
Several values for one entry are separate records, joined by “and”; a condition that tells them apart may be missing. Identical values can stand only once.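 Five compound concentrations were applied to cells in 96-well plates for 48 hours; endpoints were derived by simple linear interpolation of the resulting dose-response curve. GI50 = concentration required for 50% inhibition of growth. TGI is the concentration that stops growth completely.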

Key:
Assay in all cases: NCI tumour cell line growth inhibition, 48 h
KM20L2 colon = test system: KM20L2 colon
HOP-18 NSCLC = test system: HOP-18 NSCLC
P388/ADR leukemia = test system: P388/ADR leukemia
LXFL 529 NSCLC = test system: LXFL 529 NSCLC
DMS 114 small cell lung = test system: DMS 114 small cell lung
SN12K1 renal = test system: SN12K1 renal
DMS 273 small cell lung = test system: DMS 273 small cell lung
P388 leukemia = test system: P388 leukemia
M19-MEL melanoma = test system: M19-MEL melanoma
DLD-1 colon = test system: DLD-1 colon
RXF-631 renal = test system: RXF-631 renal

Row | SMILES | TGI (KM20L2 colon) | TGI (HOP-18 NSCLC) | TGI (P388/ADR leukemia) | TGI (LXFL 529 NSCLC) [µM] | TGI (DMS 114 small cell lung) | TGI (SN12K1 renal) | TGI (DMS 273 small cell lung) | TGI (P388 leukemia) | TGI (M19-MEL melanoma) | TGI (DLD-1 colon) | TGI (RXF-631 renal) [µM] | GI50 (KM20L2 colon) [µM] | GI50 (HOP-18 NSCLC) [µM] | GI50 (P388/ADR leukemia) [µM] | GI50 (DMS 114 small cell lung) [µM] | GI50 (SN12K1 renal) [µM] | GI50 (DMS 273 small cell lung) [µM] | GI50 (P388 leukemia) [µM] | GI50 (M19-MEL melanoma) [µM] | GI50 (DLD-1 colon) [µM]
1 | CC[C@@]1(O)C(=O)OCc2c1cc1n(c2=O)Cc2cc3ccccc3nc2-1 | 3.65 µM | 2.14 µM | 0.677 µM | 3.54 | 3.27 µM | 1 µM | 0.385 µM | 0.42 µM | 1.35 µM | 25.7 µM |  |  |  |  |  |  |  |  |  | 
2 | COc1ccccc1CC(C)N (stereo not given) | > 100 µM | > 100 µM |  | > 100 | > 100 µM |  | > 100 µM |  |  | > 100 µM | > 100 |  |  |  |  |  |  |  |  | 
3 | O=C(NC(Cc1ccc(Br)cc1)C(=O)O)c1ccc(I)cc1 (stereo not given) | > 100 µM | > 100 µM | > 100 µM |  | > 100 µM | > 100 µM | > 100 µM | > 100 µM | > 100 µM | > 100 µM |  |  |  |  |  |  |  |  |  | 
4 | Nc1ccc(O)c2c1C(=O)c1c(N)ccc(O)c1C2=O |  |  |  | > 100 | > 100 µM |  | > 100 µM |  | > 100 µM | > 100 µM |  |  |  |  |  |  |  |  |  | 
5 | CN(C)CCNC(=O)c1cc(Cl)cc2cc3ccccc3nc12 | 1.42 µM | 21.3 µM |  |  | 2.21 µM | 3.34 µM | 2.71 µM | 20.1 µM | 3.56 µM | 5.35 µM |  |  |  |  |  |  |  |  |  | 
6 | COc1ccc(-c2nc3c(nc2-c2ccc(OC)cc2)C(N)=NS(=O)(=O)N3)cc1 |  |  |  |  | > 100 µM |  | > 100 µM |  | > 100 µM | > 100 µM | > 100 |  |  |  |  |  |  |  |  | 
7 | CC1C(=O)CC(c2cccs2)N(N=O)C1c1cccs1 (stereo not given) | > 100 µM | > 100 µM | 40.8 µM |  |  | > 100 µM | > 100 µM | 43.1 µM | > 100 µM | > 100 µM |  |  |  |  |  |  |  |  |  | 
8 | CCN(CC)CC[n+]1ccc2c(C)c3[nH]c4ccc(O)cc4c3c(C)c2c1 | 35.8 µM and 46.4 µM | 17.9 µM and 42.8 µM | 64.7 µM and 91.7 µM | 20 | 8.87 µM and 15.4 µM | 11.9 µM and 16.6 µM | 19.6 µM and 20.7 µM | 2.48 µM and 4.85 µM | 5.48 µM and 6.71 µM | > 96.4 µM and 102 µM |  | 6.95 | 5.6 | 5.08 | 0.652 | 0.748 | 1.93 | 0.0256 | 0.954 | 7.81
9 | S=c1c2[nH]cnc2ncn1CCSC1=NC=NC2=NC=NC21 (stereo not given) | > 100 µM | > 100 µM |  |  | > 100 µM |  | > 100 µM |  | > 100 µM | > 100 µM |  |  |  |  |  |  |  |  |  | 
10 | CSc1nc(CO)c(CO)n1C | > 100 µM | > 100 µM | > 100 µM |  | > 100 µM | > 100 µM | > 100 µM | > 100 µM | > 100 µM | > 100 µM |  |  |  |  |  |  |  |  |  | 
11 | Cc1[nH]c(=O)[nH]c(=O)c1/C=C/C(=O)NC(CO)CS(=O)CS(C)=O (stereo not given) | 328 µM | 551 µM | 225 µM |  | 42 µM | 64.8 µM | 117 µM | 74.8 µM | 74.3 µM | 253 µM |  |  |  |  |  |  |  |  |  | 
